Measured values as given in paper PMC10785037, “Mechanisms for cardiac calcium pump activation by its substrate and a synthetic allosteric modulator using fluorescence lifetime imaging” (PNAS Nexus, 2023).
Values belong to the compound of their own block, whether it stands above or below them.

How the values were obtained:
Type in all cases: biochemical
[1] = target: T1, SERCA2a (cardiac sarcoplasmic reticulum Ca2+-ATPase) (Sus scrofa, UniProt P11607); experiment: NADH-coupled ATPase assay (activation; bell-shaped curve, aggregation suspected at high concentration)
T1 construct: gene ATP2A2; native SERCA2a in enriched pig cardiac SR microsomes
Source text: NADH-coupled ATPase assay (activation; bell-shaped curve, aggregation suspected at high concentration) on SERCA2a (cardiac sarcoplasmic reticulum Ca2+-ATPase) | CP-154526 also activates SERCA2a in the high nM to low µM range, with an observed maximal increase in Vmax

Na+/K+-ATPase NKA-α1 = target: T2, Na+/K+-ATPase NKA-α1 (Sus scrofa, UniProt P05024); experiment: ATPase activity assay
T2 construct: gene ATP1A1

[2] = target: T1, SERCA2a (cardiac sarcoplasmic reticulum Ca2+-ATPase); experiment: NADH-coupled ATPase assay, ten-point concentration-response (activation)

T1 sequence (P11607 1-997 isoform P11607-2): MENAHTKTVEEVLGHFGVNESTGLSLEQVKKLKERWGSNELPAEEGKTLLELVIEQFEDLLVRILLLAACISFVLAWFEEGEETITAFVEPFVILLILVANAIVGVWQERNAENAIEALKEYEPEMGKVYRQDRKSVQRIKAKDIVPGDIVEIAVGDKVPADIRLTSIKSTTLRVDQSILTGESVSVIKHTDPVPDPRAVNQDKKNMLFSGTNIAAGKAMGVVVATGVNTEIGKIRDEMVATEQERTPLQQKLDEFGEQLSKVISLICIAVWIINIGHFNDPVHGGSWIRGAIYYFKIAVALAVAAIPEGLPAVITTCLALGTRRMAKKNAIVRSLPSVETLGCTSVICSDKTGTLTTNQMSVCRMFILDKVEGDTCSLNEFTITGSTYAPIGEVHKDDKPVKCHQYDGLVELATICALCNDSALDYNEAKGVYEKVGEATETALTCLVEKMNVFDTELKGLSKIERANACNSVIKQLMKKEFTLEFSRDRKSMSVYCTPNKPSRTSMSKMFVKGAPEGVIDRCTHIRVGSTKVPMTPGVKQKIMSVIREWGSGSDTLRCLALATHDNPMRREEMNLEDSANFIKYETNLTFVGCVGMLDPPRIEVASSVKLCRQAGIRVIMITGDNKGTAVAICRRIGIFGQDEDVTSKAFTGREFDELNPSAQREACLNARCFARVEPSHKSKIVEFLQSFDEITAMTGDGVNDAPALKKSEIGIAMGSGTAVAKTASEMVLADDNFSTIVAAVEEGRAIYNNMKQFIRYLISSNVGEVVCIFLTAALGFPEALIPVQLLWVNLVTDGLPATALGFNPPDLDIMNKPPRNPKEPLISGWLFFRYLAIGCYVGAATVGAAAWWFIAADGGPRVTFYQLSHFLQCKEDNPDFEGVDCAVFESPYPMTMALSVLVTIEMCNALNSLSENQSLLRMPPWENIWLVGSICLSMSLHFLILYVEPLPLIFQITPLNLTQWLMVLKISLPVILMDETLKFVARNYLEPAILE

- NADH-coupled ATPase assay (activation); bell-shaped curve, aggregation suspected [1]: 28% maximal increase in Vmax at 2.5
SMILES: CCCCN(CC)c1nc(C)nc2c1c(C)cn2-c1c(C)cc(C)cc1C [CP-154526, N-butyl-N-ethyl-2,5-dimethyl-7-(2,4,6-trimethylphenyl)pyrrolo[2,3-d]pyrimidin-4-amine]

SMILES: C[C@]12CC/C(=N\OCCN)C[C@@H]1C(=O)C[C@@H]1[C@@H]2CC[C@]2(C)C(=O)CC[C@@H]12 [istaroxime, (3E,5S,8R,9S,10R,13S,14S)-3-(2-aminoethoxyimino)-10,13-dimethyl-1,2,4,5,7,8,9,11,12,14,15,16-dodecahydrocyclopenta[a]phenanthrene-6,17-dione]
- IC50 (Na+/K+-ATPase NKA-α1): 0.47 µM

- EC50 [2]: 2.3 µM
SMILES: Cc1ccc2cccc(NC(=O)c3ccc(OC(C)C)cc3)c2n1 [CDN1163, N-(2-methylquinolin-8-yl)-4-propan-2-yloxybenzamide]
